Assay results as given in patent US9163018B2, “Method of treatment of age-related macular degeneration (AMD)” (Prana Biotechnology Limited, priority 2006, dated 2015).

Experiments:
[1] = molecular target: T1, Abeta:Zn (25:50 μM) Synthetic Aggregations (Homo sapiens, UniProt P05067); experiment: Disaggregation of Abeta:Zn synthetic aggregates (ThT fluorescence); assay type: biochemical; settings: for Disaggregation % Aggregate reduction at 5 μM: 5 μM test compound; for EC50: Abeta:Zn 25:50 μM aggregates
T1 construct: PB Compound Mediated Dissolution of Aggregated Abeta 1-42; purchased Keck Laboratory, Yale University School of Medicine
T1 sequence (P05067 672-713 limits assumed): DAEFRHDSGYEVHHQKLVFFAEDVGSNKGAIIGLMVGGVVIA
Summary of the method: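 Abeta1-42 (25 μM) with ZnCl2 (50 μM) and ThT (50 μM) in PBS pH 6.6 was preaggregated 24 h at 37 degrees with rotation. Aggregates were then exposed to compound (final 1-50 μM, DMSO) for 2 h at 37 degrees. ThT fluorescence was read at ex 450/em 480 nm.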

[2] = system: dityrosine oligomerization; experiment: CuTy: inhibition of dityrosine oligomerization; assay type: biochemical; settings: referenced to in-house standard (set as 100% inhibition)
[3] = Toxicity, visual observations in mice; settings: 30 mg/kg; duration and visual observations
[4] = system: M17 human neuroblastoma cells; experiment: Cytotoxicity, M17 human neuroblastoma cells; assay type: cell-based; settings: for Cytotox (% viable) M17 cells at 1 μM: 1 μM test compound; for Cytotox (% viable) M17 cells at 10 μM: 10 μM test compound
Procedure: Assay 3. MTS Assay for Cell Viability
Cell viability is determined using the MTS assay. Culture medium is replaced with fresh neurobasal medium plus B27 supplements minus antioxidants. 1/10th volume MTS solution (Cell Titre 96 Aqueous One, Promega Corporation) and incubated at 37° C., 2 hrs. 200 microliter aliquots are measured with a spectrophotometer at 560 nm.

[5] = Mice plasma concentration after oral dose; assay type: in vivo; settings: 30 min to 4 h after single or repeat oral dose of 30 mg/kg
Aβ 1-42 = molecular target: T2, Aβ 1-42 (Homo sapiens, UniProt P05067); experiment: Fluorometric H2O2 assay (inhibition of Abeta H2O2 production); assay type: biochemical; settings: concentration required to inhibit 50% of Abeta H2O2 production; read-out: H2O2 IC50
T2 construct: The reaction solutions contained Aβ 1-42 at concentrations
T2 sequence (P05067 672-713 limits assumed): as above
Summary of the method: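 Copper-dependent Aβ H2O2 production measured fluorometrically with deacetylated dichlorofluorescein plus HRP in PBS, pH 7.4. Incubation 60 min at 37 C, test compound included in wells. H2O2 quantified against H2O2 standards.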

[6] = system: Abeta in extract of post-mortem human AD brain tissue; experiment: BAS: human brain amyloid solubilization assay; assay type: biochemical; settings: max effect across the concentration range, referenced to baseline PBS
Summary of the method: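 Plaque-bearing post-mortem AD cortex homogenised in ice-cold PBS pH 7.4; soluble Aβ in 100,000×g supernatant, insoluble Aβ from resuspended pellet. Fractions run on Tris-Tricine SDS-PAGE, immunoblotted with W02, densitometry against synthetic Aβ40 standards.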

Aβ deposits = settings: daily oral gavage 30 mg/kg, 9 weeks, 13-14 months old transgenic mice
[7] = system: primary cortical neuronal cultured cells; experiment: Test compound cytotoxicity, MTS assay, primary cortical neuronal cultures; assay type: cell-based, mouse; settings: for Cytotox (% viable) Neuronal cells at 1 μM: 1 μM test compound; for Cytotox (% viable) Neuronal cells at 10 μM: 10 μM test compound
Summary of the method: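 Primary cortical neurons were cultured five days in Neurobasal/B27, then exposed on day six to compounds (from 2.5 mM DMSO stocks) in medium minus antioxidants, in triplicate for 4 days at 37° C. Viability was measured by MTS, 2 h at 37° C, absorbance at 560 nm.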

| Structure (SMILES) | Disaggregation % Aggregate reduction at 5 μM [1] [%] | EC50 [1] [nM] | CuTy % inhibition of dityrosine oligomerization [2] | Toxicity at 30 mg/kg [3] | Cytotox (% viable) M17 cells at 1 μM [4] [%] | Cytotox (% viable) M17 cells at 10 μM [4] [%] | Mice plasma concentration [5] | IC50 (Aβ 1-42) [nM] | BAS max effect [6] [%] | Tg Mice % difference from control in Amyloid plaque abundance (Aβ deposits) [%] | Tg Mice % difference from control in insoluble brain amyloid burden (Aβ deposits) [%] | Tg Mice % difference from control in soluble brain amyloid burden (Aβ deposits) | Cytotox (% viable) Neuronal cells at 1 μM [7] [%] | Cytotox (% viable) Neuronal cells at 10 μM [7] [%] |
| --- | --- | --- | --- | --- | --- | --- | --- | --- | --- | --- | --- | --- | --- | --- |
| Br.CN(C)Cc1nc2c(O)c(Cl)cc(Cl)c2c(=O)[nH]1 [PB 1147] | 12.5 | > 20000 | CuTy: 100% inhibition | 10 days, none | 94.7 | 100.3 | Up tp 642.6 ng/ mL ng/mL | – | – | – | – | – | – | – |
| O=c1c2c(Cl)cc(Cl)c(O)c2ncn1Cc1cccnc1 [PB 1240] | – | – | CuTy: 60% inhibition | 10 days, none | 106.4 | 100.2 | Up to 4023.4 ng/mL | 320 | – | – | – | – | – | – |
| CCNCc1ccc2c(Cl)cc(Cl)c(O)c2n1.Cl [PB 1051] | 22.3 | > 20000 | – | 10 days, none | 78.3 | 44 | Up to 403 ng/ mL ng/mL | 380 | 270 | −39 | −21 | slight increase | 87 | 56 |
| CCn1c(CN(C)C)nc2c(O)c(Cl)cc(Cl)c2c1=O.Cl [PB 1268] | – | – | CuTy: 110% inhibition | 10 days, none | 99.2 | 102.1 | Up to 975.9 ng/ml ng/mL | 360 | – | – | – | – | – | – |
| Cn1ccnc1Cn1cnc2c(O)c(Cl)cc(Cl)c2c1=O [PB 1243] | – | – | CuTy: 60% inhibition | 10 days, none | 112 | 122.3 | Up to 13214.8 ng/mL | 380 | – | – | – | – | – | – |
| O=c1c2c(Cl)cc(Cl)c(O)c2ncn1Cc1cn2ccccc2n1 [PB 1239] | – | – | CuTy: 50% inhibition | 10 days, none | 109.2 | 98.2 | Up to 98.3 ng/ mL ng/mL | 480 | – | – | – | – | – | – |
| O=C1NC(=O)c2cc(-n3cnc4c(O)c(Cl)cc(Cl)c4c3=O)ccc21 [PB 1247] | – | – | CuTy: 150% inhibition | 10 days, none | 101.2 | 110.8 | – | 560 | – | – | – | – | – | – |
| O=c1c2c(Cl)cc(Cl)c(O)c2ncn1Cc1cccc(Cn2cnc3c(O)c(Cl)cc(Cl)c3c2=O)n1 [PB 1101] | 45 | – | 10% inhibition | 10 days, none | 94.9 | 26.8 | – | 4100 | – | – | – | – | 89 | 67 |
| CCc1c(O)c(=O)ccn1CC.Cl [PB 1270] | – | – | CuTy: 80% inhibition | – | – | – | – | > 10000 | – | – | – | – | – | – |
| Oc1c(C2CC2)ncc2cccnc12 [PB 1073] | 50 | 4700 | – | 6 days, none | – | – | Up to 350 ng/ mL in mice ng/mL | 520 | – | – | – | – | 100 | 98 |
